We go through 2 molecules from patent US10363251B2, “(+)-morphinans as antagonists of toll-like receptor 9 and therapeutic uses thereof” (Mallinckrodt LLC, priority 2009, dated 2019).

Assay [1] deals with chronic constriction injury (CCI) neuropathic pain model. Put plainly: Reversal of allodynia (von Frey) in CCI rats, 4 days of dosing, Example 4. Conditions: i.p. once a day for 4 days from day 14; tested 3 hrs after dosing; ultra low to high dose; vs saline. It is filed as in vivo, rat. The protocol:
Allodynia was induced in a group of (male, Sprague-Dawley) rats essentially as described above in Example 3. Prior to surgery, animals were tested to establish their baseline von Frey scores. Any animal with a Log absolute von Frey score lower than 4.65 on either leg was excluded from the study. CCI surgery was performed on the left sciatic nerve as detailed above. On days 4 and 14 post-surgery, the animals were tested using the von Frey test of mechanical allodynia to ensure that allodynia was established.
Beginning at about day 14 post-surgery, the animals were dosed once a day for 4 days. Compounds II-25, II-93, II-62, and III-2 were tested. All drugs were administered intraperitoneally (i.p.). Allodynia was tested prior to and again 3 hrs after each dosing. Drug administration and testing was done blindly. After the 4th day of dosing, the animals were sacrificed, cardiac perfusion was performed, and spinal cords were removed and stored for further analysis.
All data were analyzed using 2-way ANOVA's with Bonferroni's post hoc test compared to saline unless otherwise stated. Area under curve (AUC) was calculated using Graphpad Prism and comparisons were made using 1-way ANOVA with Dunnet's post hoc test.

The next assay deals with T1, TLR9 (Homo sapiens, UniProt Q9NR96).
T1 construct: expressed in transfected cells; host or cells: HEK293
T1 sequence (Q9NR96 26-1032): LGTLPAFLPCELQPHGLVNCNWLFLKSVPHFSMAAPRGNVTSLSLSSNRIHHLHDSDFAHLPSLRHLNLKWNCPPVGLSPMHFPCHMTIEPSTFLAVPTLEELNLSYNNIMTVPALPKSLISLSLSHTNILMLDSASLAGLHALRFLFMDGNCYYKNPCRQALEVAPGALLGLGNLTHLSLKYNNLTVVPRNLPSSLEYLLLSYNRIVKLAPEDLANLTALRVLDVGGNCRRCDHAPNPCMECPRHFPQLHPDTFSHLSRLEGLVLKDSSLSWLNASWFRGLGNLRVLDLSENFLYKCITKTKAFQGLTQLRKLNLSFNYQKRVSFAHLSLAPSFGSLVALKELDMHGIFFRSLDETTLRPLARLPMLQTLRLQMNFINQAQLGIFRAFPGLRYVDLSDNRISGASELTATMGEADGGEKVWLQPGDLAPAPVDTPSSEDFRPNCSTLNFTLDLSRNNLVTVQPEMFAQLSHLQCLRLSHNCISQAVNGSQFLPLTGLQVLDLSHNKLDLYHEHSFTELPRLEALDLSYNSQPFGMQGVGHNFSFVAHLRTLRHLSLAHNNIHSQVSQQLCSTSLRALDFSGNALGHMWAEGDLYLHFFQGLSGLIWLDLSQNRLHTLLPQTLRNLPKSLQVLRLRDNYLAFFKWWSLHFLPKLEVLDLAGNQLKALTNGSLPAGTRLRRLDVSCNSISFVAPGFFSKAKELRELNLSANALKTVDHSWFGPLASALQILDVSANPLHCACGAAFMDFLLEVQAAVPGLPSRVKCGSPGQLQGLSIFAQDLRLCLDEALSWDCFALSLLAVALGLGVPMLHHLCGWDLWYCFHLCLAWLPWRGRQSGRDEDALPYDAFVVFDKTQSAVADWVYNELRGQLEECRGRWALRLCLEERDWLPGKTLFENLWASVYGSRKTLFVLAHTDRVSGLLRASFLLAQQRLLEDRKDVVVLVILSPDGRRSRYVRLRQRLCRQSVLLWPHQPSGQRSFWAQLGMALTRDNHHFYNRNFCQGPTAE
Put plainly: TLR9 screening of (+)-morphinan library, SEAP reporter in HEK293 cells expressing TLR9. Particulars: activator ODN2006; for OD 650 nm (mean ± sd): control (no activator) 0.14, activator 1.42 OD. The format is cell-based. In short, it runs like this: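 HEK293 cells expressing TLR9 with an NF-κB-inducible SEAP reporter were preincubated with compound at 10 μM and 100 nM for 30 min at 37 °C, then stimulated with ODN2006. SEAP was read as OD 650 nm after 16-20 h, in triplicate.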

The test system of assay [2] is cytoplasmic DNA receptor AIM2. Put plainly: IFN-β up-regulation in plasmacytoid dendritic cells by poly (dA:dT). The format is cell-based. The source says: TLR9 signalling involves activation of NF-κB and IRF downstream pathways. The (+)-morphinan inhibited both of these pathways following activation of TLR9 (but not activation of TLR4 or other receptors). The type C TLR9 agonist, ODN2395, and the TL4 agonist, LPS, both induce up-regulation of IL-1β in peritoneal macrophages via activation of NF-κB.

For assay [3], the system named is hepatic ischemia reperfusion (IR) injury. As to the kind of experiment: Hepatic ischemia reperfusion (IR) injury model. The format is in vivo, mouse. The protocol:
Anesthetized mice were subjected to 1 hour of hepatic ischemia by occluding the vasculature supplying the left and median lobes (ischemic lobes) of the liver by a microvascular clamp. Thereafter, the blood supply was resumed (reperfusion). Some animals were sacrificed after 3 hour of reperfusion, and others after 12 hours or reperfusion. The experimental group received Cmpd II-78 at a dose of 80 mg/kg given intraperitoneally 1 hour prior to starting ischemia. The compound was administered before the start of ischemia to mimic the presumed clinical timing of delivery.
Livers were sectioned, stained, examined, and scored (Suzuki scoring system) based on the presence and/or severity of sinusoidal congestion, cytoplasmic vacuolization, and necrosis of parenchymal cells, as indicated in the table below. The levels of serum alanine transaminase (ALT) were also measured using a standard assay.
IL-1β, MCP-1, and NLPR3 have pro-inflammatory and tissue damaging properties, and IL-1R antagonist (IL-1Ra) has anti-inflammatory and pro-reparative functions in the liver. MAP kinases are part of an important cytoplasmic signaling cascade that are known to be activated (i.e., phosphorylated) by IR. The levels of IL-1β, MCP-1, NLPR3, and IL-1Ra mRNA were determined in whole liver (at the 12 hour time point) using standard techniques (e.g., RT-PCR). The activation of MAP kinases was determined in whole liver lysates by Western blotting using phospho-specific antibodies (12 hour time point).

The mark [4] stands for this setting: whole liver, 12 hours of reperfusion.

The structures appear in SMILES notation.

`C=CCN1CC[C@]23c4c5ccc(O)c4O[C@H]2C(=O)CC[C@]3(O)[C@H]1C5` [(+)-Naloxone, (+)-naloxone]: the “Reversal of allodynia (von Frey)” value in assay [1] is on record as “not effective at reversing allodynia”.

A word on the inhibition: it is the change of the read-out against control, counted positive when it falls. In the case of `CN[C@@H]1CC[C@]2(O)[C@@H]3Cc4ccc(O)c5c4[C@]2(CCN3CC2CC2)[C@@H]1O5` [II-78], the “OD 650 nm (mean ± sd)” value was 0.14 ± 0.02 OD on TLR9 (100 nM) and 0.11 ± 0.01 OD at TLR9 (10 μM). Moreover, the inhibition at 0.1 µM on TLR9 (HEK293, read-out: % Inhibition (mean), 100 nM) came out at 90%. Moreover, the inhibition at 10 µM on TLR9 (HEK293, read-out: % Inhibition (mean), 10 μM) stood at 92%. Moreover, the IFN-β up-regulation result in assay [2] is “this activation was not blocked”. Moreover, the “Histological Suzuki score (hepatic IR injury)” value in assay [3] (80 mg/kg ip 1 hour prior to ischemia, 1 h ischemia, 3 and 12 hours of reperfusion) is “reduced hepatic ischemic reperfusion (IR) injury”. Besides, in assay [3] (80 mg/kg ip, 3 and 12 hours of reperfusion), the “IR-induced serum ALT levels” value is “reduced IR-induced serum alanine transaminase (ALT) levels”. Besides, the “Liver injury (serum ALT)” value in assay [3] (80 mg/kg ip, 3 hour time point) is listed as “trend towards reduction”; in assay [3] (80 mg/kg ip, 12 hour time point), “significantly reduced liver injury”. Further, the “IR-induced cleavage and activation of TLR9 (western blotting)” value in assay [3] (liver) was “reduction of IR-induced cleavage and activation of LTR9”. In addition, the “IR-induced activation of MAP kinases (western blotting)” value in assay [3] (whole liver lysates, 12 hour time point) was “reduction of IR-induced activation of MAP kinases”. The “Anti-inflammatory molecule IL-1Ra mRNA relative to β-actin” value in assay [3] (setting [4]) was “increased an anti-inflammatory molecule”. Besides, the “IR-induced pro-inflammatory cytokines (IL-1β, MCP-1, NLPR3 mRNA relative to β-actin)” value in assay [3] (setting [4]) is “reduced IR-induced pro-inflammatory cytokines”.
